# Test results: US20130156753A1 (UNIVERSITY OF ROCHESTER, priority 2010, published 2013)
# How the values were obtained:
# NRVMs = test: Cardiomyocyte hypertrophy (cell size, α-actinin immunostaining) in NRVMs; format: cell-based, rat
# From the text: A-H, Cardiomyocyte size was detected by immunostaining with anti-α-actinin antibody. […] The cells were fixed and analyzed for GFP-HDAC5 localization, α-actinin staining and nuclear DAPI staining *, p<0.05 versus without PE; #, p<0.05 versus with PE alone. I, Schematic model for PKA-dependent regulation of HDAC5 subcellular localization and gene transcription.
# Cardiomyocyte protein marker α-actinin was detected by immunofluorescence using antibody against α-actinin and fluorescein-conjugated secondary antibody.
# (§1) After 24 hour culture, cells were maintained in serum-free DMEM medium for additional 24 hours, and then exposed to various inducers or inhibitors (for 30 minutes) prior to PE or PMA stimulation for indicated times. The cells were washed with PBS and fixed with 3.7% formaldehyde in PBS. Images were captured at a magnification of ×60, using a fluorescence microscope (Olympus BX51) equipped with a digital camera and Spot software system (RT Color Diagnostic Instruments). For analysis of the myocyte marker, sarcomeric α-actinin antibody and DAPI in neonatal cardiomyocyte, immunocytochemistry were performed according to a standard protocol. For subcellular localization of endogenous HDAC5 in cardiomyocyes, we fixed cells and used the detergent Saponin (Sigma, 84510) to make cells permeable, and then performed immunocytochemistry with anti-HDAC5 antibody (Santa Cruz, sc-11419). For subcellular localization of HDAC5, total around 200 cells were counted in each condition. For cardiomyocyte size, total myocyte surface areas were calculated using NIH Image J software, and expressed as the average of 100 randomly selected cells per condition.
# [1] = tested on: ANF, β-MHC, α-SMA expression; test: RT-PCR of cardiac fetal gene expression in NRVMs; format: cell-based, rat; settings: PE 24 hours
# Protocol: The mRNA was extracted from the cell lysates and then RT-PCR with the primers for ANF, β-MHC, α-SMA, and GADPH (internal control) was performed. *, p<0.05 versus PE+Ad-GFP; #, p<0.05 versus PE+GFP-HDAC5-WT, n=4.
# The mRNA was extracted from the cell lysates, and quantitative RT-PCR with the primers for ANF and GADPH (internal control) were performed as described in the Examples. Quantitative data are shown (n=4).
# Total RNA was isolated from NRVM using TRIzol (Invitrogen Corp.). Firststrand cDNA was synthesized with the SuperScript Preamplification System (Gibco-BRL). cDNA was amplified by PCR for 30 cycle (Applied Biosystem) as described previously (4, 5). Rat GAPDH served as an internal control. The following oligonucleotide primers were used in this study: rat ANF, sense 5′-[…]-3′ (SEQ ID NO:11) and antisense 5′-[…]-3′(SEQ ID NO:12) rat α-SMA, sense 5′-[…]-3′ (SEQ ID NO:13) and antisense 5′-[…]-3′ (SEQ ID NO:14); rat β-MHC (myosin heavy chain), sense 5′-[…]-3′ (SEQ ID NO:15) and antisense 5′-[…]-3′ (SEQ ID NO:16); rat GAPDH, sense 5′-[…]-3′ (SEQ ID NO:17) and antisense 5′-[…]-3′ (SEQ ID NO:18). Experiments were repeated three times.
# HDAC5 nuclear export = test: PMA-induced GFP-HDAC5 nuclear export in Cos7 cells (fluorescence microscopy); format: cell-based
# Protocol: A, B, Cos7 cells were co-transfected with expression vectors encoding GFP-tagged HDAC5 (GFP-HDAC5) and constitutively active protein kinases as indicated, and then exposed to phorbol-12-myristate-13-acetate (PMA, […]) for 3 hours. […] A-F, The cells were fixed and the subcellular localization of GFP-HDAC5 was visualized by fluorescence microscopy.
# C, D, Cos7 cells were transfected with GFP-HDAC5-WT or GFP-HDAC5-S280D and then exposed to PMA for 3 hours. GFP-HDAC5-S280D but not GFP-HDAC5-WT was resistant to PMA-induced nuclear export. *, p<0.05 versus without PMA, n=4. E, F, Cos7 cells were transfected with Flag-HDAC5-WT or Flag-HDAC5-S280A mutant, and then pretreated with forskolin followed with the exposure to PMA. Phosphorylation of HDAC5 in cell lysates was analyzed by immunoblotting with phospho-specific HDAC5 antibodies that recognize the HDAC5 phosphorylated at Ser259 (E) and Ser498 (F). G, H, Cos7 cells were transfected with Flag-HDAC5-WT, Flag-HDAC5-S280A or Flag-HDAC5-S280D, and then pretreated with forskolin, followed with the exposure to PMA. Coimmunoprecipitation of Flag-HDAC5 in cell lysates and then immunoblotting with anti-14-3-3 beta and anti-Flag antibodies in immunoprecipitates were performed. 14-3-3 in total cell lysates (5% of the input) was determined by immunoblotting with anti-14-3-3 antibodies. Representative blots are shown, n=3.
# The cells were fixed and GFP-HDAC5 localization was analyzed by fluorescence microscopy.
# For analysis of GFP-HDAC5 subcellular localization in NRVMs and Cos7 cells, cells were plated in the presence of adenovirus (multiplicity of infection, 50 to 100) on 35 mm dishes containing DMEM plus 10% FBS as previously described (Vega R B, et al. (2004) Protein kinases C and D mediate agonist-dependent cardiac hypertrophy through nuclear export of histone deacetylase 5. Mol Cell Biol 24(19):8374-8385).
# as §1
compound,measurement,setting,value
"CCCC(=O)Nc1ncnc2c1ncn2[C@@H]1O[C@@H]2COP(=O)(O)O[C@H]2[C@H]1OC(=O)CCC [cAMP, Dibutyryl-cAMP]",size of cardiomyocytes after PE,"NRVMs; NRVMs with GFP-HDAC5-WT, cAMP 30 min, PE 24 hours",decreased the size of cardiomyocytes
same,PE/Angiotensin II-induced cardiomyocyte hypertrophy,"NRVMs; NRVMs, forskolin 10 μM, cAMP 500 μM, Rolipram 10 μM 30 min, PE or Angiotensin II 24 hours",inhibit PE/Angiotensin II-induced cardiomyocyte hypertrophy
same,"PE-elevated expression of ANF, β-MHC and α-SMA","[1]; NRVMs with GFP-HDAC5-WT, cAMP pretreatment",blocked this elevated gene expression
same,PE-induced ANF expression (quantitative RT-PCR),"[1]; NRVMs, cAMP 30 min",decreases PE-induced ANF expression
same,PMA-induced HDAC5 nuclear export,"HDAC5 nuclear export; GFP-HDAC5-WT, pretreatment, then PMA for 3 hours",totally blocked HDAC5 nuclear export
same,PMA-induced nuclear export of GFP-HDAC5-S280A,"HDAC5 nuclear export; S280A mutant, cAMP pretreatment, PMA 3 hours",inhibited nuclear export of GFP-HDAC5-WT but not GFP-HDAC5-S280A
